This note sets out measurements from ChEMBL document CHEMBL1641581, “Ring A-seco triterpenoids with antibacterial activity from Dysoxylum hainanense” (2011).

Assay type in all cases: functional
Test [1] deals with Saccharomyces. As to the kind of experiment: Antifungal activity against Saccharomyces sake ATCC 26421 assessed as inhibition of visible growth.
Test [2] has as its system Trichophyton rubrum. As to the kind of experiment: Antifungal activity against Trichophyton rubrum ATCC 10218 assessed as inhibition of visible growth.
Test [3] relates to Nannizzia gypsea. As to the kind of experiment: Antifungal activity against Microsporum gypseum ATCC 14683 assessed as inhibition of visible growth.
The test system of test [4] is Escherichia coli. As to the kind of experiment: Antibacterial activity against Escherichia coli ATCC 25922 assessed as inhibition of visible growth.
Test [5] has as its system Pseudomonas aeruginosa. As to the kind of experiment: Antibacterial activity against Pseudomonas aeruginosa ATCC 14502 assessed as inhibition of visible growth.
The test system of test [6] is Shigella flexneri. As to the kind of experiment: Antibacterial activity against Shigella flexneri ATCC 12022 assessed as inhibition of visible growth.
For test [7], the system named is Staphylococcus epidermidis. As to the kind of experiment: Antibacterial activity against Staphylococcus epidermidis ATCC 12228 assessed as inhibition of visible growth.
Test [8] deals with Bacillus subtilis. As to the kind of experiment: Antibacterial activity against Bacillus subtilis ATCC 6633 assessed as inhibition of visible growth.
Test [9] has as its system Micrococcus luteus. As to the kind of experiment: Antibacterial activity against Micrococcus luteus ATCC 9341 assessed as inhibition of visible growth.
In test [10] the test system is Candida albicans. As to the kind of experiment: Antifungal activity against Candida albicans ATCC 1600 assessed as inhibition of visible growth.
The subject of test [11] is Staphylococcus aureus. As to the kind of experiment: Antibacterial activity against Staphylococcus aureus ATCC 25923 assessed as inhibition of visible growth.

Values after ≈ are worked out from the molar mass of the structure shown.

For `CC(C)(C(=O)O)[C@@H]1CC[C@]2(C)[C@H](CC=C3[C@@H]4C[C@@](C)(C(=O)O)CC[C@]4(C)CC[C@]32C)[C@@]1(C)C(=O)O` [DYSOXYHAINIC ACID F], the minimum inhibitory concentration (MIC) in test [1], in [2], in test [3], in test [4], in test [5] and in test [6] was over 50 µg/mL throughout. For the same molecule, the MIC in test [7], in test [8], in [9], in [10] and in test [11] was over 50 µg/mL each time.

Turning to `C=C(C)[C@@H]1CC[C@]2(C)[C@H](CC=C3[C@@H]4C[C@@](C)(C(=O)O)CC[C@]4(C)CC[C@]32C)[C@@]1(C)CCC(=O)OC` [DYSOXYHAINIC ACID G], the MIC in [1], in test [2], in test [3], in test [4], in test [5] and in [6] was over 50 µg/mL each time. For the same molecule, the MIC (as a rule, the lowest concentration found to suppress growth) is 3.12 µg/mL (≈ 6.44 µM) in test [7]; 3.12 µg/mL (≈ 6.44 µM) in [8]; 3.12 µg/mL (≈ 6.44 µM) in [9]; over 50 µg/mL in [10]; over 50 µg/mL in [11].

As to `C=C(C)[C@@H]1CC[C@]2(C)[C@H](CC[C@@H]3[C@H]4[C@H](C(C)(C)O)CC[C@]4(C)CC[C@]32C)[C@@]1(C)CCC(=O)O` [DYSOXYHAINIC ACID H], the MIC in [1], in test [2], in test [3], in test [4], in test [5] and in test [6] was over 50 µg/mL each time. For the same molecule, the MIC in test [7] was over 50 µg/mL; in [8] it was 3.12 µg/mL (≈ 6.8 µM); in [9], 3.12 µg/mL (≈ 6.8 µM); in [10], over 50 µg/mL; in test [11] it was over 50 µg/mL.

As for `CC1(C)CC[C@]2(C)CC[C@]3(C)C(=CC[C@@H]4[C@@](C)(CCC(=O)O)[C@H](C(C)(C)O)CC[C@]43C)[C@@H]2C1` [DYSOXYHAINIC ACID I], the minimal inhibitory concentration (MIC) in [1], in [2], in [3], in test [4], in test [5] and in [6] was over 50 µg/mL in each case. For the same molecule, the MIC in test [7] was 12.5 µg/mL (≈ 27.2 µM); in test [8], 1.56 µg/mL (≈ 3.4 µM); in [9] it was over 50 µg/mL; in [10], over 50 µg/mL; in test [11], over 50 µg/mL.

With `CC1(C)CC[C@]2(C)CC[C@]3(C)C(=CC=C4[C@@](C)(CCC(=O)O)[C@H](C(C)(C)O)CC[C@]43C)[C@@H]2C1` [DYSOXYHAINIC ACID J], the MIC in [1], in test [2], in [3], in test [4], in [5] and in [6] was over 50 µg/mL in each case. The minimum inhibitory concentration (MIC) in test [7], in [8], in test [9], in [10] and in test [11] was over 50 µg/mL throughout.

With `C=C(C)[C@@H]1CC[C@]2(C)[C@H](CC=C3[C@@H]4C[C@@](C)(C(=O)O)CC[C@]4(C)CC[C@]32C)[C@@]1(C)CCC(=O)O` [KOETJAPIC ACID], the minimal inhibitory concentration (MIC) in [1], in test [2], in test [3], in test [4], in test [5] and in [6] was over 50 µg/mL in each case. Further, the MIC in test [7] is 12.5 µg/mL (≈ 26.6 µM); in [8], 6.25 µg/mL (≈ 13.3 µM); in test [9], over 50 µg/mL; in test [10], over 50 µg/mL; in test [11], over 50 µg/mL.

For the molecule `C=CCc1ccc(O)c(-c2cc(CC=C)ccc2O)c1` [MAGNOLOL], the MIC in test [4] was over 50 µg/mL; in test [5], over 50 µg/mL; in test [6] it was over 50 µg/mL; in [7], 12.5 µg/mL (≈ 46.9 µM); in test [8], 12.5 µg/mL (≈ 46.9 µM); in test [9], 12.5 µg/mL (≈ 46.9 µM). Also, the minimal inhibitory concentration (MIC) in test [11] was 25 µg/mL (≈ 93.9 µM).

In the case of `COC(=O)C1=CC[C@@]23CC[C@@H]([C@@](C)(/C=C/C=C(\C)C(=O)O)OC2=O)[C@@]3(OC(C)=O)CC1` [PSEUDOLARIC ACID B], the MIC in test [1] is 12.5 µg/mL (≈ 28.9 µM); in test [2], 25 µg/mL (≈ 57.8 µM); in test [3], 12.5 µg/mL (≈ 28.9 µM); in [10], 6.25 µg/mL (≈ 14.5 µM).
